Literature values, collected in patent publication US9782362B2, “Uses of compositions containing a roasted extract and xanthohumol” (TA-XAN AG, priority 2012, dated 2017).
Where two headings read alike, the source gives them in different places.

Experiments:
[1] = 4 weeks, female C3H-mice
[2] = system: human Kaposi's sarcoma (KS-IMM) cells; conditions: approx. 1.2 mg/kg for 23 days
[3] = 100 mg/kg/day in drinking water for four weeks, then mated
bacterial culture = conditions: depending on doses ranging between 0.01 to 10 μM
[4] = system: bone-resorbing cells (osteoclasts); conditions: in vitro
apoptosis = conditions: 4-6 mg/kg per day for 60 days in the drinking water
[5] = system: Human breast tumor cells (MX-1 cells); conditions: daily subcutaneous 1000 mg/kg
[6] = system: Human breast tumor cells (MXF7 cells); conditions: daily dose of 4-6 mg/kg in the drinking water; not validated statistically at the 95% level
[7] = up to 100 mg/kg/day per os, 4 weeks
[8] = system: Cells in culture or rat liver; conditions: depending on doses ranging between 0.01 to 10 μM
inflammation = conditions: oral 4-6 mg/kg per day for 60 days in drinking water
[9] = direct chemical interaction
Estrogen = conditions: oral three×100 mg/kg over three days
[10] = rat
[11] = system: Diacylglycerol acetyltransferase (DGAT); conditions: in vitro
[12] = mice
angiogenesis = conditions: approx. 1 mg/kg per day three days per os; 4-6 mg/kg per day 60 days drinking water; or 1000 mg/kg subcutaneously

Q: For `COc1cc(O)c(CC=C(C)C)c(O)c1C(=O)/C=C/c1ccc(O)cc1` [xanthohumol], which “development of weight, appearance of organs, haematologically clinical parameters, liver enzyme values, glucose metabolism” value ([1]; approximately 28 mg/kg/day in drinking water) is on record?
A: Its value is “uninfluenced”.

Q: And the impact on health ([1]; drinking water 5×10^−4M ad libitum, approximately 28 mg/kg/day)?
A: The impact on health was “no unfavorable impact”.

Q: And the “growth of the tumor inhibited” value [2]?
A: The value was 68%.

Q: And the “influence on fertility or lactation” value [3]?
A: The value was “Neither the pre-treatment of the female animals nor of the males had any influence”.

Q: What about the “inhibition of mutagenic damage” value (bacterial culture) of the same molecule?
A: Its value is “up to 100%”.

Q: And the “inhibition of the resorption of bone” value ([4]; 1 μM)?
A: Its value is 35%.

Q: What about the “inhibition of the resorption of bone” value ([4]; 10 μM) of the same molecule?
A: The value was 94%.

Q: What about the induction of apoptosis (apoptosis) of the same molecule?
A: Its induction of apoptosis is “could be detected”.

Q: And the “growth of the tumor inhibited” value ([5]; in one week)?
A: Its value is 46%.

Q: What about the “growth of the tumor inhibited” value ([5]; in two weeks) of the same molecule?
A: The value was 83%.

Q: What about the “growth of the tumor inhibited” value [6] of the same molecule?
A: Its value is 35%.

Q: What about the toxicity [7] of the same molecule?
A: The toxicity was “no indication of toxicity”.

Q: What about the “inhibition of DNA damage” value [8] of the same molecule?
A: The value was “up to 100%”.

Q: What about the effect on inflammation (inflammation) of the same molecule?
A: Its effect on inflammation is “inhibitive effect on inflammation was also established in vivo”.

Q: What about the “interception of DPPH radical” value [9] of the same molecule?
A: Its value is “not able to intercept”.

Q: What about the anti-estrogen action (Estrogen) of the same molecule?
A: The anti-estrogen action was “possible to detect anti-estrogen action”.

Q: What about the “absorption following oral application” value [10] of the same molecule?
A: The value was “poorly absorbed”.

Q: What about the “state in the excrement” value ([10]; oral) of the same molecule?
A: The value was “largely unchanged”.

Q: And the toxic effects (daily for 4 weeks: 100 mg/kg drinking water, 500 mg/kg in feed, 1000 mg/kg pharyngeal tube)?
A: Its toxic effects is “no toxic effects whatsoever could be determined”.

Q: What about the “weight of the liver” value (high-dose groups (500 mg/kg/day and 1000 mg/kg/day), due to breakdown of glycogen) of the same molecule?
A: Its value is “reduction in the weight of the liver”.

Q: What about the DGAT inhibition [11] of the same molecule?
A: Its DGAT inhibition is “inhibition of this enzyme”.

Q: What about the plasma glucose level [12] of the same molecule?
A: The plasma glucose level was “reduction”.

Q: And the triglycerides [12]?
A: The triglycerides was “reduction”.

Q: And the anti-angiogenetic action (angiogenesis)?
A: The anti-angiogenetic action was “anti-angiogenetic action”.
